Experimental data from patent US20250018014A1, “METHOD FOR TREATING AND/OR PREVENTING REGNASE-1-RELATED DISEASE” (OSAKA UNIVERSITY, priority 2018, published 2025).
Residues, ends and D or L forms follow the SMILES beside them.

Columns and labels:
Type in all cases: biochemical
[1] = target: T1, ΔCTD_Reg1 (amino acids 1 to 546 of human Regnase-1) phosphorylation by IKKβ (Homo sapiens, UniProt Q5D1E8); assay: Regnase-1 phosphorylation inhibition by compounds (AlphaScreen), IKKβ, CTD-deficient Regnase-1; conditions: Table 14; phosphorylation by IKKβ; read-out: Phosphorylation inhibition ΔCTD_Reg1, 50% inhibition concentration (IKKβ)
T1 construct: made in house; host or cells: Expi293 cells
T1 sequence (Q5D1E8 1-546): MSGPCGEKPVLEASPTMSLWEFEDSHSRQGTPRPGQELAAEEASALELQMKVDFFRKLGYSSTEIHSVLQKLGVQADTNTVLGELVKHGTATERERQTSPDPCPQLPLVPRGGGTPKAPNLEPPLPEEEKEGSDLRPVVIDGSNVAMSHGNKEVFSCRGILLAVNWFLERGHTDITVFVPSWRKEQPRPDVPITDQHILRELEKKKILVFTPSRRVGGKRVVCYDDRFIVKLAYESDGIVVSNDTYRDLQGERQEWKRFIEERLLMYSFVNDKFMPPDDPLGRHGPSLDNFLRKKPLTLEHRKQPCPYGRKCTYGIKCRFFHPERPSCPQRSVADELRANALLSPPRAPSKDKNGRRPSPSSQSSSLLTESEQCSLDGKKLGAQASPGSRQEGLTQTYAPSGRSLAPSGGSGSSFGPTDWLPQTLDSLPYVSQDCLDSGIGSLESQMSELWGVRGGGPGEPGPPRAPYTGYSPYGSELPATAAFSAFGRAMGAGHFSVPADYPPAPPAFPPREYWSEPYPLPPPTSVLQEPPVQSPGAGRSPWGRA
In short: (§1)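 FLAG/BirA-tagged human Regnase-1 constructs (full-length, 1–546 or 301–599), expressed in Expi293 cells, were used at 2 nM with compound and phosphorylated by IKKβ or TBK1 with 10 μM ATP, DTT, vanadate and MnCl2 for 2 h at room temperature. Phospho-Regnase-1 was read by AlphaScreen; IC50 came from % inhibition curves normalised to DMSO and Regnase-1-alone signals.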

[2] = target: T2, FL_Reg1 (full-length human Regnase-1) phosphorylation by TBK1 (Homo sapiens, UniProt Q5D1E8); assay: Regnase-1 phosphorylation inhibition by compounds (AlphaScreen), TBK1, full-length Regnase-1; conditions: Table 13; phosphorylation by TBK1; read-out: Phosphorylation inhibition FL_Reg1, 50% inhibition concentration (TBK1)
T2 construct: made in house; host or cells: Expi293 cells
T2 sequence (Q5D1E8 1-599): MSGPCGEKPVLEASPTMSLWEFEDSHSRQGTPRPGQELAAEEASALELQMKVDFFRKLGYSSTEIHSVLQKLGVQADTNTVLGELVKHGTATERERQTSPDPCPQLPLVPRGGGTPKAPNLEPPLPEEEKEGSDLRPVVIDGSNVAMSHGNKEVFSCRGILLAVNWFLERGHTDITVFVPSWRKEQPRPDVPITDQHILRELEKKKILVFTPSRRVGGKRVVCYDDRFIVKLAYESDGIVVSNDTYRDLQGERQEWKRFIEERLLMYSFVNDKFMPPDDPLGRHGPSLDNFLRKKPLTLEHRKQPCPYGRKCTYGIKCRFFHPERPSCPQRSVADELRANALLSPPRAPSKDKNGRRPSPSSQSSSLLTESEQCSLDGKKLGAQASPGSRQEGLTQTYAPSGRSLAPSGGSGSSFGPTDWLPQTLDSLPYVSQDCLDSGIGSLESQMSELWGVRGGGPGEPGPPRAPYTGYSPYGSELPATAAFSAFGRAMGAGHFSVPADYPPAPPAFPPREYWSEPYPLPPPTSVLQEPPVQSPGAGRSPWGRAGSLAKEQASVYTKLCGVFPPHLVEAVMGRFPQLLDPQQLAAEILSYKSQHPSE
In short: as §1

[3] = target: T3, ΔCTD_Reg1 (amino acids 1 to 546 of human Regnase-1) phosphorylation by TBK1 (Homo sapiens, UniProt Q5D1E8); assay: Regnase-1 phosphorylation inhibition by compounds (AlphaScreen), TBK1, CTD-deficient Regnase-1; conditions: Table 13; phosphorylation by TBK1; read-out: Phosphorylation inhibition ΔCTD_Reg1, 50% inhibition concentration (TBK1)
T3 construct: made in house; host or cells: Expi293 cells
T3 sequence (Q5D1E8 1-546): T1 sequence (Q5D1E8 1-546)
Text: The full-length sequence of human Regnase-1 (UniProt ID: Q5D1E8) was used to prepare a construct having a FLAG tag on the N-terminal side and a recognition sequence for biotin ligase BirA on the C-terminal side (FL_Reg1) as a target protein. The above-mentioned Regnase-1 was expressed in mammalian Expi293 cells, purified with FLAG M2 agarose, and isolated by gel filtration chromatography. When biotinylation was required, methods from nonpatent documents (BMC biotechnology, 2008,8,41; and Protein Science, 1999,8,921-929) were used.
Among the full-length human Regnase-1 sequence, the 1st to 546th amino acid sequence was prepared and made into a construct having a FLAG tag on the N-terminal side and a biotin ligase BirA recognition sequence on the C-terminal side (herein, a Regnase-1 lacking the C-terminal domain of Regnase-1 (amino acids 547 to 599 in the case of SEQ ID NO: 2) is referred to as “ΔCTD_Reg1”. “ΔCTD_Reg1” is different from “Regnase-1ΔCTD”, which is a C-terminal domain deletion variant resulting from a frameshift mutation caused by a 1 bp deletion at codon 517, as prepared in Example 13). In addition, the sequence from amino acids 301 to 599 of the full-length human Regnase-1 sequence was designated as C-terminal Regnase-1, and a construct having a FLAG tag on the N-terminal side and a recognition sequence for biotin ligase BirA on the C-terminal side was prepared (Reg1_301-599). The above-mentioned Regnase-1 was expressed in mammalian Expi293 cells, purified with FLAG M2 agarose, and isolated by gel filtration chromatography. When biotinylation was required, methods of nonpatent documents (BMC biotechnology, 2008,8,41; and Protein Science, 1999,8,921-929) were used.
Using Kinase assay buffer III (manufactured by SignalChem) supplemented with 2 mM DTT, 100 μM sodium vanadate, and 2 mM manganese chloride, kinase (IKKβ (manufactured by SignalChem) or TBK1 (manufactured by SignalChem)) and Regnase-1 were reacted in the presence of 10 μM ATP at room temperature for 2 hours to perform a phosphorylation reaction.
Phosphorylated Regnase-1 was detected by the AlphaScreen system. After each of the above-mentioned phosphorylated Regnase-1 antibodies was added and reacted at room temperature for one hour, anti-FLAG AlphaLISA Acceptor Beads (manufactured by PerkinElmer) and Protein A AlphaScreen Donor Beads (manufactured by PerkinElmer) were added, and EnVision (manufactured by PerkinElmer) was used to measure the excited luminescence. As a result, phosphorylated Regnase-1 produced by the phosphorylation reaction by kinase was specifically detected, and signals were confirmed to be enhanced in a manner dependent on Regnase-1 and kinase concentrations (FIG. 24).
After mixing 2 nM of the above-mentioned Regnase-1 and the compound, phosphorylated Regnase-1 produced by the phosphorylation reaction was detected by the AlphaScreen system. As the results, the inhibition rate was calculated from the signals obtained when adding the compound at each concentration, by defining the signal obtained with Regnase-1 alone to be 100% inhibition rate, and the signal obtained when the same amount of solvent (DMSO) is added in place of the compound as 0% inhibition rate. The 50% inhibition concentration (μM) was calculated from the obtained dose response curve (Table 11).

IC50 [1]: > 62.1 µM | IC50 [2]: 38.5 µM | IC50 [3]: > 62.1 µM
SMILES: CC[C@H](C)[C@@H]1NC(=O)[C@H](Cc2c[nH]c3ccccc23)NC(=O)[C@@H](Cc2ccccc2)NC(=O)[C@H](CCCCN)NC(=O)[C@H](C)N(C)C(=O)C[C@@H](C(=O)N2CCCC2)NC(=O)[C@H](CCC(=O)O)NC(=O)[C@H](Cc2ccccc2)NC(=O)[C@H](CO)NC(=O)[C@H](Cc2c[nH]cn2)NC(=O)[C@H](Cc2c[nH]cn2)NC1=O [PP20] (HELM PEPTIDE1{[meA].K.[dF].W.I.H.H.S.F.E.D.[C1CCN([*:1])C1]}$PEPTIDE1,PEPTIDE1,1:R1-11:R3$$$V2.0)
